According to patent publication US12208096B2, “Effective treatment of depression in patients having impaired learning and/or memory or certain EEG characteristics with a benzylpiperazine-aminopyridine agent” (Alto Neuroscience, Inc., priority 2022, dated 2025):

Legend:
[1] = system: patients having major depressive disorder; test: First Phase 2 clinical trial of NSI-189 in major depressive disorder (220 patients, SPCD design), original and retrospective analysis; type: in vivo, human
Description: A subsequent Phase 2 study was then performed on 220 patients with major depression (11). […] Treatment in either stage was given for six weeks. This design is termed a Sequential Parallel Clinical Design (SPCD) and is analyzed statistically by combining results in a pre-defined manner for outcomes differences between relevant groups (e.g., drug vs. placebo) in each of the stages individually. There are two depression outcome measures accepted by the FDA for the evaluation of adults. See the June 2018 FDA draft guidance entitled “Major Depressive Disorder: Developing Drugs for Treatment.” These are the Montgomery-Asberg Depression Rating Scale (MADRS), which was the primary outcome in this study, as well as the Hamilton Depression Rating Scale (HDRS) which was a key secondary outcome measure.
The remaining patients continued their treatment for stage 2 of the trial. Treatment in either stage was given for six weeks. Patients were eligible for study participation if they were between the ages of 18-60 years, with current major depressive disorder of at least 8 weeks duration according to the DSM-5, as diagnosed by the Structured Clinical Interview for the DSM-5 clinical trial version (SCID-5-CT) during the screen and remote assessment visits, and if they were scored at least 20 at screen, remote assessment, and baseline visits on the Montgomery-Asberg Depression Rating Scale (MADRS). The phase 2 study collected cognitive task performance data prior to treatment, and then again after both stage 1 and stage 2 of the treatment protocol. The purpose of doing so was to determine whether treatment with this compound results in improvement in cognitive functioning, as measured by a variety of behavioral measures.
Prior to the inventor's retrospective analysis, there was no consideration as to using behavioral measures to predict treatment outcome nor was there any analysis conducted to this effect. There was no consideration of using cognitive performance as a predictor but only as an outcome measure. […] The tasks in this battery included a simple reaction time (RT) task, a choice RT task, a one-back working memory task, and a visual learning task. Moreover, given the conversion to z-score, a composite cognitive task performance score could be computed by averaging the z-scores for each of the four tasks in the battery. Analyses focused on the MADRS primary outcome of the study. Statistical analyses focused on the complete trial (incorporating both stage 1 and stage 2 outcomes), using the SPCD analytic approach reported in the original study and thus aligned could be compared with the original statistical analysis plan. Mixed models repeated measures (MMRM) were used to predict change from baseline (at 2, 4, and 6 weeks) in clinical scores and included covariates for group (i.e., poor versus good cognition as defined by a given measure of interest), time, time x group, time x baseline MADRS and baseline MADRS. These covariates likewise were used in the original study, and thus results here can be compared with the all-comer results reported previously. Statistical significance was thus assessed on the primary outcome (MADRS change from baseline at 6 weeks across the SPCD design). The change in MADRS scores in the all corner (i.e. original sample) analysis is shown in FIG. 1(A) for comparison to subgroups as defined by cognitive task performance.
To examine the effect of baseline cognition on clinical outcomes, individuals were split at the mean of the average z-score across all tasks (thus a cognition composite score). This generates two groupings, which were termed poor cognition (below mean, negative z scores) or good cognition (above mean, positive z scores). The poor cognition group can also be termed to be cognitively impaired. […]

patients with MDD = test: Open-label Phase 2 clinical trial of NSI-189 as monotherapy or adjunctive treatment in depression (MADRS); type: in vivo, human
Description: These patients also underwent a more comprehensive cognitive battery than in the prior Phase 2 study. As above, MMRM analyses were applied on MADRS change from baseline scores in MDD patients. […] In this study, the current episode was determined by the either the prior two years, or the period within the prior two years since the last time at which two continuous months of euthymia occurred, whichever was shorter. Insufficient response to an antidepressant in the current episode was defined as less than a 50% reduction in symptoms (e.g., based on the total score on the MADRS or HDRS).
All analyses used a z=−0.75 cutoff to identify poor cognition patients (with z-scores determined with reference to a separate healthy population) in order to ensure that poor cognition patients are impaired in those tasks.
An overall cognitive performance variable comprised of measures of executive function (digit-symbol substitution task, Wisconsin card sorting task, trail making task, Corsi blocks, verbal fluency), information processing speed (flanker task, choice RT, simple RT) and verbal learning and/or memory was analyzed.
Learning and/or memory was assessed with a word list task, in which patients are given the word lists on five learning trials, and then memory is assessed through recall of those word lists immediately after learning and again after an approximately 20 minute delay (including after inclusion of a new distractor list of words). This computer-implemented task is named VM-REACT (Verbal memory recall computerized test) and is further described in Naparstek et al., J Psychiatr Res., 2019, 114:170-177 (PMID 31096177).
Another way of analyzing the PSD is through the observation that the background trend in the data can be quantified as a measure of background neural activity and has a 1/f relationship (where f is frequency). One way of quantifying this signal is termed the aperiodic exponent, which is estimated as the negative slope for the line of best fit over the 1-50 Hz range of the power spectral density in the log-log space (T. Donoghue, et al., Nat Neurosci, 23(12): 1655-1665 December 2020). Channel-wise correlation of the aperiodic exponent with treatment outcome (as percentage change in MADRS scores from baseline) was examined.

patients with PTSD = test: Open-label Phase 2 clinical trial of NSI-189 in PTSD (CAPS-5); type: in vivo, human; conditions: 40 mg BID, recall index cutoff z<=-0.5, week 4
Text: These patients underwent the same cognitive battery as patients with depression. As above, MMRM analyses were applied on the Clinician Administered PTSD Scale for DSM-5 (CAPS-5) change from baseline scores in PTSD patients. This analysis included 84 patients.
The overall sample using MMRMs that included core terms for time, baseline, group (i.e., poor versus good cognition as defined by a given measure of interest), time x group and time by baseline. The analyses shown in FIG. 12 used a z≤−0.5 cutoff on recall index scores in order to identify poor cognition patients (with z-scores determined with reference to a separate healthy population identically as for the depressed patients above). This cutoff ensured that poor cognition patients are impaired in this task.

[2] = system: subjects with moderate to severe depression; test: Additional clinical trial with NSI-189 (20 subjects, MADRS); type: in vivo, human; conditions: 80 mg (40 mg BID)
[3] = system: patients having major depressive disorder; conditions: cited from earlier work
[4] = system: patients with major depression; conditions: total daily doses of 40 mg, 80 mg or 120 mg; 18 patients on active drug; cited from earlier work
[5] = 80 mg, regardless of how the clinical population was defined
[6] = all patients, 40 mg or 80 mg daily vs placebo, full SPCD analysis or each stage alone

## CC(C)CCNc1ncccc1C(=O)N1CCN(Cc2ccccc2)CC1 [NSI-189, (4-benzylpiperazin-1-yl)-[2-(3-methylbutylamino)pyridin-3-yl]methanone]
[1]; 80 mg arm vs placebo, poor cognition group (cognitive composite score), SPCD analysis Stage 1 and Stage 2, p=0.014
  drug-placebo effect size Cohen's d, change in MADRS scores: 0.58
[1]; good cognition group, 40 mg or 80 mg, p=0.25
  change in MADRS scores, either drug arm versus placebo: no significant differences
[1]; poor cognition group, p=0.39
  change in MADRS scores, 40 mg group versus placebo: not significant
[1]; poor cognition group, stage 1, week 2, p=0.045
  Cohen's d, change in MADRS, 80 mg arm versus placebo: 0.55
[1]; poor cognition group, stage 1, week 4, p=0.01
  Cohen's d, change in MADRS, 80 mg arm versus placebo: 0.7
[1]; poor cognition group, stage 1, week 6, p=0.03
  Cohen's d, change in MADRS, 80 mg arm versus placebo: 0.59
[1]; poor self-reported cognition, CPFQ score >25
  change in MADRS scores, 80 mg versus placebo: no difference is seen between treatment arms
Patients with MDD; 80 mg (40 mg BID), CPFQ>25 vs <=25
  MADRS outcome, self-reported poor versus good cognition: no significant differences
Patients with MDD; 80 mg (40 mg BID), moderate or greater vs minimal or less diminishment
  MADRS outcome, subjective diminishment of memory recall (CPFQ item): not predictive of outcome
Patients with MDD; 80 mg (40 mg BID), overall cognitive composite cutoff z=-0.75
  reduction in the MADRS score, poor versus good cognition patients: significantly better improvement in depressive symptoms
Patients with MDD; 80 mg (40 mg BID), week eight, p=0.004
  Cohen's d, MADRS outcome, poor delayed recall versus good: 0.61
Patients with MDD; 80 mg (40 mg BID), week eight, p=0.010
  Cohen's d, MADRS outcome, poor immediate recall versus good: 0.56
Patients with MDD; 80 mg (40 mg BID), week four, p=0.045
  Cohen's d, MADRS outcome, poor delayed recall versus good: 0.40
Patients with MDD; 80 mg (40 mg BID), week six, p=0.001
  Cohen's d, MADRS outcome, poor delayed recall versus good: 0.67
Patients with MDD; 80 mg (40 mg BID), week six, p=0.022
  Cohen's d, MADRS outcome, poor immediate recall versus good: 0.48
Patients with MDD; 80 mg (40 mg BID), week two, p=0.028
  Cohen's d, MADRS outcome, poor delayed recall versus good: 0.43
Patients with MDD; 80 mg, EEG resting eyes closed, split at the median
  change in MADRS from baseline, low versus high aperiodic exponent patients: significantly better depression outcome
Patients with MDD; [5]
  remission rates, poor versus good learning and/or memory patients: approximately double
  response rates, poor versus good learning and/or memory patients: approximately double
Patients with MDD; poor learning and/or memory patients, 80 mg open label, across definitions of the clinical population
  response rates on the MADRS (50% or greater reduction): 60-82%
Patients with PTSD
  CAPS-5 change from baseline, poor versus good cognition: significantly greater reduction in PTSD symptoms
[2]; poor verbal memory z<-0.5, week 8
  MADRS improvement, poor versus good cognition patients: trend
[2]; poor verbal memory z<-0.5, weeks 2, 4, and 6
  MADRS improvement, poor versus good cognition patients: large and statistically significantly greater improvement
[3]; 40 mg dose, not corrected for multiple comparisons
  effects on several secondary measures compared to placebo: nominally significant effects
[3]; 80 mg daily dose, all patients
  efficacy on any study measure: did not demonstrate efficacy on any study measure
[3]; [6]
  antidepressant efficacy on the HDRS key secondary measure: failed to demonstrate any evidence of antidepressant efficacy
  antidepressant efficacy on the MADRS primary outcome measure: failed to demonstrate any evidence of antidepressant efficacy
[3]; all-comer population, prior Phase 2 study
  all-comer drug placebo difference, Cohen's d: ~0.2
[4]
  antidepressant efficacy: promising evidence for potential antidepressant efficacy
